Data on eight compounds can be found in patent EP4289427A1, “DIHYDRO[1,8]NAPHTHYRIDIN-7-ONE AND PYRIDO[3,2-B][1,4]OXAZIN-3-ONE FOR USE IN TREATING CANCER, AND METASTASES IN PARTICULAR” (Anagenesis Biotechnologies, priority 2022, dated 2023).

In data set [1] the test system is 4T1 cells. Description: Cytotoxicity assay (CellTiter-Glo 2.0) on 4T1 cells. Format: cell-based, Mouse. The note with it: incubation 2 days; for IC50: Mus musculus, 48 h. How it is done: (§1) Cytotoxicity assays consist in treating cells with compounds and assessing remaining viability after a defined incubation time, depending on the cell line. CellTiter-Glo® 2.0 reagent allows viability measurement by quantification of ATP present, which is an indicator of metabolically active cells.
(§2) The cancer cell lines were cultivated in their respective growth medium (see tables 6a and 6b). On day 0 of the cytotoxicity assay, the cells were harvested and seeded into a 384-well plate at a defined density in their respective growth medium (see tables 6a and 6b). Compounds to be tested were then added onto the cells and incubated for a defined duration (see tables 6a and 6b). Following incubation, CellTiter-Glo® 2.0 reagent (cat.no. G9241 from Promega) was added into the wells (vol/vol, according to the manufacturer's recommendations), plates were gently shaken and incubated for 10 minutes in the dark at room temperature. Bioluminescence was then measured with a multimode plate reader (Victor Nivo from Perkin Elmer), and cell viability and relative IC50 were determined. Table 6a: Cancer cell characteristics, culture and cytotoxic assay conditions
For orientation: In ATP-based viability assays light output follows the ATP content of the culture.

Data set [2] deals with RD cells. Description: Cytotoxicity assay (CellTiter-Glo 2.0) on RD cells. Type of data set: cell-based, Human. The note with it: for IC50: Homo sapiens. How it is done: as §1, §2
The test system of data set [3] is EoL-1 cells. Nature of the data set: Cytotoxicity assay (CellTiter-Glo 2.0) on EoL-1 cells. Format: cell-based, Human. The note with it: incubation 1 day; for IC50: Homo sapiens, EOL1, 24 h. As to the method:
as §1, §2

In data set [4] the test system is HUVECs. Nature of the data set: Tube formation assay (anti-angiogenic activity). Format: cell-based, human. Conditions: incubation 16 to 18 hours; for IC50: Homo sapiens, HUVEC. The source says: Angiogenesis is a phenomenon that includes different processes, such as endothelial cell proliferation, migration and differentiation that lead to the formation of new blood vessels. Tube formation assay is a standard in vitro test to assess angiogenesis: briefly, human Umbilical Vein Endothelial cells (hereafter "HUVECs") cultivated on a gelled basement matrix spontaneously proliferate, migrate and differentiate to form tube-like structures, that appear elongated and that connect to each other to form a network.
HUVECs were cultivated in Endothelial Cell Growth Medium (cat.no. C-22010 from Promocell) supplemented with 1% PenStrep (hereafter "HUVEC medium"). On day 0, HUVECs were harvested and transferred into a 384-well plate precoated with 10 µl/well of Cultrex UltiMatrix Reduced Growth factor basement membrane (cat.no. BME001-10 from BioTechne), according to the manufacturer's instructions, at a density of 5000 cells/well in HUVEC medium. Compounds to be tested were then added onto the cells and incubated for 16 to 18 hours at 37°C. After this incubation period, the cells were stained with calcein-AM (cat.no. 10462052 from Fisher Scientific) and pictures were acquired using a confocal fluorescent microscope (IXM from Molecular Devices). Tube formation was measured with MetaXpress® Software.

The test system of data set [5] is MDA-MB-231 cells. Nature of the data set: Cytotoxicity assay (CellTiter-Glo 2.0) on MDA-MB-231 cells. Format: cell-based, Human. The note with it: incubation 3 days; for IC50: Homo sapiens, 72 h. How it is done:
as §1, §2

Each structure is given as a SMILES string.

What is called IC50 is the concentration needed to halve the response being measured. A high value points to a need for much substance. `CSc1cc(Oc2ccnc3c2OCC(=O)N3)ccc1NC(=O)Nc1cc(C(C)(C)C)nn1-c1ccc(CN2CCOCC2)cc1` [Compound 038, 1-[5-tert-butyl-2-[4-(morpholinomethyl)phenyl]pyrazol-3-yl]-3-[2-methylsulfanyl-4-[(3-oxo-4H-pyrido[3,2-b][1,4]oxazin-8-yl)oxy]phenyl]urea]: the IC50 in data set [1] was 1 to 5 µM; in data set [2] (48 h, 2 day-treatment) it was 1 to 5 µM; in data set [2] (96 h, 4 day-treatment), 1 to 5 µM; in data set [3], 0.001 to 0.01 µM; in data set [4], 0.1 to 0.5 µM; in data set [5], 1 to 5 µM. For the same compound, the Cytotoxicity result was “+++ (cytotoxicity ≥ 85%)” in data set [1]; “++ (50% ≤ cytotoxicity < 85%)” in data set [2] (2 day-treatment); “++ (50% ≤ cytotoxicity < 85%)” in data set [2] (4 day-treatment); “++ (50% ≤ cytotoxicity < 85%)” in data set [3]; “++ (50% ≤ cytotoxicity < 85%)” in data set [5]. The Angiogenesis inhibition result in data set [4] is given as “+++ (angiogenesis inhibition ≥ 80%)”.

As to `CC(C)(C)c1cnc(NC(=O)Nc2ccc(Oc3ccnc4c3CCC(=O)N4)c3ccccc23)s1` [Compound 007, 1-(5-(tert-butyl)thiazol-2-yl)-3-(4-((7-oxo-5,6,7,8-tetrahydro-1,8-naphthyridin-4-yl)oxy)naphthalen-1-yl)urea], the half-inhibitory concentration (IC50) was 1 to 5 µM in data set [1]; 5 to 10 µM in data set [2] (48 h, 2 day-treatment); 1 to 5 µM in data set [2] (96 h, 4 day-treatment); 0.01 to 0.1 µM in data set [3]; < 0.1 µM in data set [4]; 1 to 5 µM in data set [5]. The Cytotoxicity result is listed as “+++ (cytotoxicity ≥ 85%)” in data set [1]; “+ (20 % ≤ cytotoxicity < 50%)” in data set [2] (2 day-treatment); “++ (50% ≤ cytotoxicity < 85%)” in data set [2] (4 day-treatment); “+++ (cytotoxicity ≥ 85%)” in data set [3]; “++ (50% ≤ cytotoxicity < 85%)” in data set [5]. In addition, the Angiogenesis inhibition entry in data set [4] is reported as “+++ (angiogenesis inhibition ≥ 80%)”.

For `CN(C)Cc1ccc(-n2nc(C(C)(C)C)cc2NC(=O)Nc2ccc(Oc3ccnc4c3OCC(=O)N4)cc2C(F)(F)F)cc1` [Compound 049, 1-[5-tert-butyl-2-[4-(dimethylaminomethyl)phenyl]pyrazol-3-yl]-3-[4-[(3-oxo-4H-pyrido[3,2-b][1,4]oxazin-8-yl)oxy]-2-(trifluoromethyl)phenyl]urea], the IC50 was 1 to 5 µM in data set [1]; 5 to 10 µM in data set [2] (48 h, 2 day-treatment); 5 to 10 µM in data set [2] (96 h, 4 day-treatment); 0.01 to 0.1 µM in data set [3]; 0.1 to 0.5 µM in data set [4]; 5 to 10 µM in data set [5]. For the same compound, the Cytotoxicity entry in data set [1] is given as “+++ (cytotoxicity ≥ 85%)”; in data set [2] (2 day-treatment), “+++ (cytotoxicity ≥ 85%)”; in data set [2] (4 day-treatment), “+++ (cytotoxicity ≥ 85%)”; in data set [3] it was “++ (50% ≤ cytotoxicity < 85%)”; in data set [5], “+++ (cytotoxicity ≥ 85%)”. In data set [4], the Angiogenesis inhibition entry is given as “+++ (angiogenesis inhibition ≥ 80%)”.

`CSc1cc(Oc2ccnc3c2OCC(=O)N3)ccc1NC(=O)Nc1cc(C(C)(C)C)nn1-c1ccc(CCN(C)C)cc1` [Compound 051, 1-[5-tert-butyl-2-[4-[2-(dimethylamino)ethyl]phenyl]pyrazol-3-yl]-3-[2-methylsulfanyl-4-[(3-oxo-4H-pyrido[3,2-b][1,4]oxazin-8-yl)oxy]phenyl]urea]: the IC50 in data set [1] is 1 to 5 µM; in data set [2] (48 h, 2 day-treatment), 1 to 5 µM; in data set [2] (96 h, 4 day-treatment) it was 1 to 5 µM; in data set [3], 0.001 to 0.01 µM; in data set [4], < 0.1 µM; in data set [5], 1 to 5 µM. Further, the Cytotoxicity entry in data set [1], in data set [2] (2 day-treatment), in data set [2] (4 day-treatment), in data set [3] and in data set [5] was “+++ (cytotoxicity ≥ 85%)” throughout. Further, the Angiogenesis inhibition result in data set [4] is on record as “+++ (angiogenesis inhibition ≥ 80%)”.

On to `CSc1cc(Oc2ccnc3c2OCC(=O)N3)ccc1NC(=O)Nc1cc(C(C)(C)C)nn1-c1ccc(F)cc1F` [Compound 031, 1-[5-tert-butyl-2-(2,4-difluorophenyl)pyrazol-3-yl]-3-[2-methylsulfanyl-4-[(3-oxo-4H-pyrido[3,2-b][1,4]oxazin-8-yl)oxy]phenyl]urea], for which the IC50 is 1 to 5 µM in data set [1]; 1 to 5 µM in data set [2] (48 h, 2 day-treatment); 1 to 5 µM in data set [2] (96 h, 4 day-treatment); 0.001 to 0.01 µM in data set [3]; 0.1 to 0.5 µM in data set [4]; 1 to 5 µM in data set [5]. Moreover, the Cytotoxicity result was “+++ (cytotoxicity ≥ 85%)” in data set [1]; “++ (50% ≤ cytotoxicity < 85%)” in data set [2] (2 day-treatment); “++ (50% ≤ cytotoxicity < 85%)” in data set [2] (4 day-treatment); “+++ (cytotoxicity ≥ 85%)” in data set [3]; “++ (50% ≤ cytotoxicity < 85%)” in data set [5]. Besides, the Angiogenesis inhibition entry in data set [4] is given as “+++ (angiogenesis inhibition ≥ 80%)”.

For `CSc1cc(Oc2ccnc3c2CCC(=O)N3)ccc1NC(=O)Nc1cc(C(C)(C)C)no1` [Compound 008, 1-(3-(tert-butyl)isoxazol-5-yl)-3-(2-(methylthio)-4-((7-oxo-5,6,7,8-tetrahydro-1,8-naphthyridin-4-yl)oxy)phenyl)urea], the concentration for half-maximal inhibition (IC50) in data set [1] is < 1 µM; in data set [2] (48 h, 2 day-treatment) it was < 1 µM; in data set [2] (96 h, 4 day-treatment), < 1 µM; in data set [3], 0.001 to 0.01 µM; in data set [4], < 0.1 µM; in data set [5], < 1 µM. Further, the Cytotoxicity result is “+++ (cytotoxicity ≥ 85%)” in data set [1]; “++ (50% ≤ cytotoxicity < 85%)” in data set [2] (2 day-treatment); “+++ (cytotoxicity ≥ 85%)” in data set [2] (4 day-treatment); “+++ (cytotoxicity ≥ 85%)” in data set [3]; “++ (50% ≤ cytotoxicity < 85%)” in data set [5]. The Angiogenesis inhibition entry in data set [4] is given as “+++ (angiogenesis inhibition ≥ 80%)”.

Regarding `CSc1cc(Oc2ccnc3c2OCC(=O)N3)ccc1NC(=O)Nc1cc(C(C)(C)C)nn1-c1ccc(CN2CCN(C)CC2)cc1` [Compound 054, 1-[5-tert-butyl-2-[4-[(4-methylpiperazin-1-yl)methyl]phenyl]pyrazol-3-yl]-3-[2-methylsulfanyl-4-[(3-oxo-4H-pyrido[3,2-b][1,4]oxazin-8-yl)oxy]phenyl]urea], the 50% inhibitory concentration (IC50) in data set [1] was 1 to 5 µM; in data set [2] (48 h, 2 day-treatment), 1 to 5 µM; in data set [2] (96 h, 4 day-treatment), 1 to 5 µM; in data set [3], 0.001 to 0.01 µM; in data set [4], < 0.1 µM; in data set [5], 1 to 5 µM. Also, the Cytotoxicity result in data set [1], in data set [2] (2 day-treatment), in data set [2] (4 day-treatment), in data set [3] and in data set [5] was “+++ (cytotoxicity ≥ 85%)” each time. In addition, the Angiogenesis inhibition result in data set [4] is reported as “+++ (angiogenesis inhibition ≥ 80%)”.

Consider `CSc1cc(Oc2ccnc3c2OCC(=O)N3)ccc1NC(=O)Nc1cc(C(C)(C)C)nn1-c1ccc(CN(C)C)cc1` [Compound 033, 1-[5-tert-butyl-2-[4-[(dimethylamino)methyl]phenyl]pyrazol-3-yl]-3-[2-methylsulfanyl-4-[(3-oxo-4H-pyrido[3,2-b][1,4]oxazin-8-yl)oxy]phenyl]urea], for which the IC50 in data set [1] was < 1 µM; in data set [2] (48 h, 2 day-treatment), 1 to 5 µM; in data set [2] (96 h, 4 day-treatment), 1 to 5 µM; in data set [3] it was 0.001 to 0.01 µM; in data set [4], < 0.1 µM; in data set [5], 1 to 5 µM. The Cytotoxicity result in data set [1], in data set [2] (2 day-treatment), in data set [2] (4 day-treatment), in data set [3] and in data set [5] was “+++ (cytotoxicity ≥ 85%)” each time. The Angiogenesis inhibition result in data set [4] is given as “+++ (angiogenesis inhibition ≥ 80%)”.
